Assay results from US20230278972A1, “SUBSTITUTED HALOALKYL SULFONANILIDE HERBICIDES” (FMC Corporation, priority 2020, published 2023).

What was measured:
Type in all cases: in vivo
corn (Zea mays) = test: Test A postemergence, corn; conditions: Postemergence
Outline: (§1)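 After sowing into a sand-amended loam, pots for the preemergence test were treated by spraying directly onto soil. In parallel, seedlings at the one- to two-leaf stage and 2 to 10 cm tall were treated postemergence with the identical surfactant-containing formulation.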

[1] = tested on: barnyardgrass (Echinochloa crus-galli); test: Test A postemergence, barnyardgrass; conditions: Postemergence, 0 to 100 scale (0 no effect, 100 complete control)
Outline: (§2)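 Postemergence ratings come from foliar sprays onto one- to two-leaf plants of 2 to 10 cm grown in loam/sand; preemergence ratings come from a directed spray onto the soil of newly seeded pots. Formulation was a surfactant-containing non-phytotoxic solvent blend.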

[2] = tested on: pigweed (Amaranthus retroflexus); test: Test A postemergence, pigweed; conditions: Postemergence
Outline: as §1

[3] = tested on: Foxtail, Giant (giant foxtail, Setaria faberi); test: Test A postemergence, Foxtail, Giant; conditions: Postemergence
Outline: as §1

[4] = tested on: blackgrass (Alopecurus myosuroides); test: Test A postemergence, blackgrass; conditions: Postemergence, 0 to 100 scale (0 no effect, 100 complete control)
Outline: as §1

[5] = tested on: ragweed (common ragweed, Ambrosia artemisiifolia); test: Test A postemergence, ragweed; conditions: Postemergence
Outline: as §1

[6] = tested on: pigweed (Amaranthus retroflexus); test: Test A preemergence, pigweed; conditions: for Pigweed plant response rating: 125 g ai/ha, visual injury on 0 to 100 scale (0 no effect, 100 complete control), approximately 10 days; for Plant response rating, Pigweed: 0 to 100 scale (0 no effect, 100 complete control)
Outline: as §2

kochia (Bassia scoparia) [7] = test: Test A preemergence, kochia; conditions: Preemergence; for Kochia plant response rating: 125 g ai/ha, visual injury on 0 to 100 scale (0 no effect, 100 complete control), approximately 10 days; for Plant response rating, Kochia: 0 to 100 scale (0 no effect, 100 complete control)
Outline: as §1

[8] = tested on: Ryegrass, Italian (Italian ryegrass, Lolium multiflorum); test: Test A preemergence, Ryegrass, Italian; conditions: Preemergence; for Ryegrass, Italian plant response rating: 125 g ai/ha, visual injury on 0 to 100 scale (0 no effect, 100 complete control), approximately 10 days; for Plant response rating, Ryegrass, Italian: 0 to 100 scale (0 no effect, 100 complete control)
Outline: as §1

[9] = tested on: Foxtail, Giant (giant foxtail, Setaria faberi); test: Test A preemergence, Foxtail, Giant; conditions: Preemergence; for Foxtail, Giant plant response rating: 125 g ai/ha, visual injury on 0 to 100 scale (0 no effect, 100 complete control), approximately 10 days; for Plant response rating, Foxtail, Giant: 0 to 100 scale (0 no effect, 100 complete control)
Outline: as §1

[10] = tested on: ragweed (common ragweed, Ambrosia artemisiifolia); test: Test A preemergence, ragweed; conditions: Preemergence; for Ragweed plant response rating: 125 g ai/ha, visual injury on 0 to 100 scale (0 no effect, 100 complete control), approximately 10 days; for Plant response rating, Ragweed: 0 to 100 scale (0 no effect, 100 complete control)
Outline: as §1

[11] = tested on: Ryegrass, Italian (Italian ryegrass, Lolium multiflorum); test: Test A postemergence, Ryegrass, Italian; conditions: Postemergence
Outline: as §1

[12] = tested on: wheat (Triticum aestivum); test: Test A postemergence, wheat; conditions: Postemergence
Outline: as §2

[13] = tested on: galium (catchweed bedstraw, Galium aparine); test: Test A postemergence, galium; conditions: Postemergence
Outline: as §2

kochia (Bassia scoparia) [14] = test: Test A postemergence, kochia; conditions: Postemergence
Outline: as §1

[15] = tested on: barnyardgrass (Echinochloa crus-galli); test: Test A preemergence, barnyardgrass; conditions: Preemergence; for Barnyardgrass plant response rating: 125 g ai/ha, visual injury on 0 to 100 scale (0 no effect, 100 complete control), approximately 10 days; for Plant response rating, Barnyardgrass: 0 to 100 scale (0 no effect, 100 complete control)
Outline: as §1

[16] = 125 g ai/ha, visual injury approx. 10 days, 0 to 100 scale (0 no effect, 100 complete control)
[17] = 500 g ai/ha, visual injury vs untreated controls after approx. 10 days, 0 to 100 scale (0 no effect, 100 complete control)
[18] = 125 g ai/ha, visual injury approx. 10 days
[19] = 500 g ai/ha, visual injury vs untreated controls after approx. 10 days
[20] = 31 g ai/ha, visual injury on 0 to 100 scale (0 no effect, 100 complete control), approx. 10 days
[21] = 125 g ai/ha, 0 to 100 scale (0 no effect, 100 complete control)
[22] = 31 g ai/ha, visual injury, approx. 10 days

SMILES	Plant response rating, Corn (corn (Zea mays); [16])	Plant response rating, Barnyardgrass [1, 18]	Plant response rating, Pigweed [2, 16]	Plant response rating, Foxtail, Giant [3, 16]	Plant response rating, Blackgrass [4, 18]	Plant response rating, Ragweed [5, 16]	Pigweed plant response rating [6]	Kochia plant response rating (kochia (Bassia scoparia) [7])	Ryegrass, Italian plant response rating [8]	Foxtail, Giant plant response rating [9]	Ragweed plant response rating [10]	Plant response rating, Ryegrass, Italian [11, 16]	Plant response rating, Wheat [12, 16]	Plant response rating, Galium [13, 16]	Plant response rating, Kochia (kochia (Bassia scoparia) [14]; [16])	Barnyardgrass plant response rating [15]	Plant response rating, Corn (corn (Zea mays); [20])	Plant response rating, Barnyardgrass ([1]; 31 g ai/ha)	Plant response rating, Pigweed [2, 20]	Plant response rating, Foxtail, Giant [3, 20]	also measured
Cc1c(NS(=O)(=O)C(F)(F)F)cc(C(=O)N2CCC3(CC2)OCCCO3)c(C)c1F [Compound 129]	10	20	30	0	20	60	100	80	80	100	70	0	30	60	30	100					Corn plant response rating (corn (Zea mays); [17]): 20; Barnyardgrass plant response rating [1, 19]: 80; Pigweed plant response rating [2, 17]: 90; Foxtail, Giant plant response rating [3, 17]: 30; Blackgrass plant response rating [4, 19]: 30; Ragweed plant response rating [5, 17]: 90; Plant response rating, Pigweed ([6]; 500 g ai/ha): 100; Plant response rating, Kochia (kochia (Bassia scoparia) [7]; 500 g ai/ha): 90; Plant response rating, Ryegrass, Italian ([8]; 500 g ai/ha): 100; Plant response rating, Foxtail, Giant ([9]; 500 g ai/ha): 100; Plant response rating, Ragweed ([10]; 500 g ai/ha): 90; Ryegrass, Italian plant response rating [11, 17]: 70; Wheat plant response rating [12, 17]: 60; Galium plant response rating [13, 17]: 80; Kochia plant response rating (kochia (Bassia scoparia) [14]; [17]): 50; Plant response rating, Barnyardgrass ([15]; 500 g ai/ha): 90
COC1CCCN(C(=O)c2cc(NS(=O)(=O)C(F)(F)F)c(C)cc2C)CC1 (stereo not drawn) [Compound 137]	30	30		0	0		100	30	100	100	60			80	20	100	30	10	50	0	Plant response rating, Pigweed [2, 21]: 30; Plant response rating, Blackgrass ([4]; 31 g ai/ha): 0; Plant response rating, Ragweed [5, 20]: 0; Plant response rating, Ragweed [5, 21]: 10; Plant response rating, Pigweed [6, 22]: 80; Plant response rating, Kochia (kochia (Bassia scoparia) [7]; [22]): 30; Plant response rating, Ryegrass, Italian [8, 22]: 60; Plant response rating, Foxtail, Giant [9, 22]: 50; Plant response rating, Ragweed [10, 22]: 20; Plant response rating, Ryegrass, Italian [11, 20]: 0; Plant response rating, Ryegrass, Italian [11, 21]: 0; Plant response rating, Wheat [12, 20]: 0; Plant response rating, Wheat [12, 21]: 0; Plant response rating, Galium [13, 20]: 30; Plant response rating, Kochia (kochia (Bassia scoparia) [14]; [20]): 0; Plant response rating, Barnyardgrass [15, 22]: 20
COC(=O)N(c1cc(C(=O)N2CCCC(OC)C2)c(C)cc1C)S(=O)(=O)C(F)(F)F (stereo not drawn) [Compound 115]	0	50	60	30	0	50	90	40	90	100	20	40	60	90	30	100	0	10	30	0	Plant response rating, Blackgrass ([4]; 31 g ai/ha): 0; Plant response rating, Ragweed [5, 20]: 30; Plant response rating, Pigweed [6, 22]: 100; Plant response rating, Kochia (kochia (Bassia scoparia) [7]; [22]): 0; Plant response rating, Ryegrass, Italian [8, 22]: 70; Plant response rating, Foxtail, Giant [9, 22]: 100; Plant response rating, Ragweed [10, 22]: 0; Plant response rating, Ryegrass, Italian [11, 20]: 0; Plant response rating, Wheat [12, 20]: 40; Plant response rating, Galium [13, 20]: 80; Plant response rating, Kochia (kochia (Bassia scoparia) [14]; [20]): 20; Plant response rating, Barnyardgrass [15, 22]: 50
